Legend:
[1] = biological target: serum albumin (Homo sapiens, UniProt P02768); conditions: after patient ingestion, prior to cellular uptake; cited from earlier work
[2] = Blood glucose levels in diabetic ZDF rats treated with rosiglitazone; assay type: in vivo, rat; conditions: after three weeks of rosiglitazone 10 mg/kg by gavage
Experimental: Sixteen male ZDF rats were housed in filter cages, 2 or 3 animals per cage. Weight and blood glucose levels were measured every week. The blood glucose was measured at the fed state (07:30 am) and after 6 hours fast (1:[…]). The Animals were divided into two groups: a control group, and a rosiglitazone-treated group. Animals were treated daily for 3 weeks once a day, 5 times a week, with rosiglitazone, 10 mg/kg by gavage (0.7 ml) for the rosi-treated rats; or 0.7 ml saline for the control rats. After three weeks, liver, muscle and epididymal fat were collected and immediately frozen.
The average glucose blood level after fed of the control group was >240 mg/dl; in the rosiglitazone-treated rats some responded in a medium manner to the treatment; after three weeks of rosiglitazone treatment their glucose blood levels after fed was ˜120-140 mg/dl and some rats responded very well to rosiglitazone treatment and after three weeks their glucose blood levels after fed was ˜80 mg/dl.

serum albumin, sequence (P02768 25-609): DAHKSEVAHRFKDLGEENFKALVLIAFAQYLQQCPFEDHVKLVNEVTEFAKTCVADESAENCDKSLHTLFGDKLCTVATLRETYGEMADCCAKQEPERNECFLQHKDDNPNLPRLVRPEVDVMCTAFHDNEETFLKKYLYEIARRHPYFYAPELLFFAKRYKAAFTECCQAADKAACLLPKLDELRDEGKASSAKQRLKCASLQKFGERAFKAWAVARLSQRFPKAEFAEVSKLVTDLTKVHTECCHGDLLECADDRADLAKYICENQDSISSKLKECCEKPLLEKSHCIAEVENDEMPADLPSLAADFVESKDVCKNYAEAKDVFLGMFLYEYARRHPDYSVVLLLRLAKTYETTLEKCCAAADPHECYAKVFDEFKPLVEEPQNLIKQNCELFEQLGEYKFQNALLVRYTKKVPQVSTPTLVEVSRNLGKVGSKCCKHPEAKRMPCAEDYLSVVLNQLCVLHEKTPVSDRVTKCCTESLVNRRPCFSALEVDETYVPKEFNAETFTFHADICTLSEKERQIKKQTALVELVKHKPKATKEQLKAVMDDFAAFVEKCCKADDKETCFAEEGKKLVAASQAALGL

| Compound | binding to serum albumin [1] | glucose blood levels after fed ([2]; ZDF rats responding in a medium manner) | glucose blood levels after fed ([2]; ZDF rats responding very well) |
| --- | --- | --- | --- |
| CCc1ccc(CCOc2ccc(CC3SC(=O)NC3=O)cc2)nc1 (stereo not drawn) [pioglitazone] | largely bound to serum albumin | – | – |
| CN(CCOc1ccc(CC2SC(=O)NC2=O)cc1)c1ccccn1 (stereo not drawn) [rosiglitazone] | – | 120 to 140 mg/dL | ~80 mg/dL |

Source: patent US8350007B2, “Crystal structure of human mitoNEET protein” (The Regents of the University of California, priority 2007, dated 2013)
